From patent US20260041707A1, “GASTROINTESTINAL PROTECTANT COMPOSITION” (BIOIBERICA, S.A.U., priority 2022, published 2026)

Tests used:
[1] = system: indomethacin-induced gastric irritation; test: Rat model of indomethacin-induced gastric irritation; type: in vivo, Sprague-Dawley rats
Method: Forty-five Sprague-Dawley rats (8-9 weeks-old, 227.6±6.30 g) were divided in three groups (P1, P2 and P3; n=9 each) to receive orally 0.5 mL/rat of the test treatments. Two control groups were studied as well. […] 15 minutes after the administration of the treatment, all animals were challenged with an oral administration of indomethacin (12.5 mg/kg) and sacrificed 4 hours later. Gastric mucosal injury was examined at a macroscopical and microscopical level. Macroscopic lesions were evaluated with Image J software. Microscopically, submucosal edema and microvascular injury were scored in H&E-stained preparations (Hematoxylin&Eosin-stained preparations). Measurements were blinded and performed by two independent observers and an inter-observer mean was calculated.

human patients = conditions: humans; cited from earlier work

Sucrose octasulfate-aluminum complex [sucralfate]
microvascular injury evaluation (score, mean±SEM) ([1]; H&E-stained fundic sections, Placebo 1.53±0.077, significant vs Placebo): 0.94±0.123 | histological sections of the fundic stomach (findings) ([1]; microscopic evaluation, H&E-stained fundic sections): less severe lesions | percentage of hemorrhagic area related to the total gastric area (mean±SEM) ([1]; oral 0.5 mL/rat 15 min before oral indomethacin 12.5 mg/kg, sacrificed 4 hours later, Placebo 1.37±0.260%, p<0.05 vs Placebo): 0.41±0.154% | hemorrhagic area (mean±SEM) ([1]; oral 0.5 mL/rat 15 min before oral indomethacin 12.5 mg/kg, sacrificed 4 hours later, Placebo 13.05±2.700, p<0.05 vs Placebo): 4.28±1.495 mm^2 | other adverse effects (xerostomia, nausea, vomiting, headache, urticaria, rashes), incidence in patients (human patients): 0-5%
